Entries after “also recorded” stand apart in the source; their conditions may differ. Structures can show the parent of a compound that is named as a salt.
Assays:
[1] = tested on: carbachol 30 μM (M1, M2, M3, AChRa2 agonist); details: low dose protocol 0.1 and 0.5 μg/mL, intravesical; cited from earlier work
[2] = Antimuscarinic screen in rat bladder perfusion model (plasma, urine and tissue drug levels); details: for total recovery: theoretical dose 3.3 mg/day
Description: The drugs were perfused at varying rates, concentrations, and times. Serial blood and urine samples were taken, and tissues (bladder, ureter, kidney, and prostate) were sampled to determine drug levels and distribution. Tissue histological exams were completed for safety.

[3] = tested on: urothelium; test: Intravesical pharmacology screen in rat bladder perfusion model with acetic acid; details: for acetic acid induced increased intravesical pressure / inter-contraction intervals compared to the control: 0.05-100 μg/mL intravesical, 0.5% acetic acid; for acetic acid induced increased intravesical pressure: FIGS. 7A-7C; for inter-contraction intervals compared to the control: FIGS. 7D-7F
Experimental: Intercontraction intervals and intravesical pressure were measured during a control periods and treatment periods.
The rats' bladder catheters were connected to a pressure transducer and syringe-pump to allow perfusion. The bladders were perfused (50 μL/minute) with saline for one hour to obtain stable micturition cycles. The perfusion then was switched to a weak acidic solution sufficient to stimulate the noxious receptors in the urothelium without inducing structural or metabolic damage to the tissue. […] A 45 minute baseline was recorded.
The vehicle or antimuscarinic drugs were administered intravesically at escalating concentrations (see Table 2 for drugs and concentrations used) with acetic acid instillation (50 μL/minute). Each dose was administered for a 30-minute period. The intravesical pressure and intercontraction interval was recorded during the last 30 minutes of the control period (baseline) and during the 30 minutes of each treatment period, with one treatment period corresponding to one dose of drug.

[4] = oral therapeutic doses for 5 days; cited from earlier work
[5] = tested on: normal bladder activity; details: human urine after oral dosing infused into rat bladders; cited from earlier work

## O=C(O[C@H]1C[C@H]2CC[C@@H](C1)[N+]21CCCC1)C(O)(c1ccccc1)c1ccccc1 [Trospium, trospium chloride]
[1]
  intercontraction interval ratio to baseline: performed similarly
[2]; 24-48 hours after exposure
  urine concentration: about 150 μg/mL
[2]; 48-72 hours after exposure
  urine concentration: > 125 µg/mL
[2]; rat, in vivo
  Cmax: 0.06 to 0.7 ng/mL
[2]; rat, intravesical perfusion
  Effective Urine Concentration: 1 to 10 µg/mL
  Urine to Plasma Ratio: 15,380
[2]
  total recovery: near the theoretical dose
[3]
  acetic acid induced increased intravesical pressure: dose dependent reductions
[3]; listed as trospium
  inter-contraction intervals compared to the control: increase intercontraction interval; also recorded: increased the inter-contraction intervals compared to the control
[3]; listed as trospium chloride
  inter-contraction intervals compared to the control: kept the inter-contraction intervals closer to the baseline measurement
[3]; at intravesical concentration normalizing urothelial sensory function
  urinary retention or significant systemic exposure: did not produce urinary retention or significant systemic exposure
[3]; intravesical
  concentration range showing activity: 0.05 to 100 µg/mL
[4]
  active compound excreted in the human's urine: 60-80%
[5]
  effect on bladder capacity and intercontraction interval: more positive effect

## Cc1ccc(O)c([C@H](CCN(C(C)C)C(C)C)c2ccccc2)c1 [Toterodine, tolterodine tartrate]
[2]; rat, intravesical perfusion
  Effective Urine Concentration: 1 to 10 µg/mL
[3]
  acetic acid induced increased intravesical pressure: dose dependent reductions
[3]; listed as tolterodine
  inter-contraction intervals compared to the control: neither of which altered intercontraction interval
[3]; listed as tolterodine tartrate
  inter-contraction intervals compared to the control: little effect

## CCN(CC)CC#CCOC(=O)C(O)(c1ccccc1)C1CCCCC1 (stereo not drawn) [Oxybutynin, oxybutynin chloride]
[1]
  intercontraction interval ratio to baseline: performed similarly
[2]; compared among the three drugs
  systemic absorption following intravesical administration: significantly higher systemic absorption
[2]; rat, in vivo
  estimated intravesical absorption: 83 % of the intravesical dose
[2]; rat, intravesical perfusion
  Effective Urine Concentration: 1 to 10 µg/mL
[2]
  total recovery: low total recovery
[3]
  acetic acid induced increased intravesical pressure: dose dependent reductions
  inter-contraction intervals compared to the control: neither of which altered intercontraction interval
[3]; listed as oxybutynin hydrochloride
  inter-contraction intervals compared to the control: little effect

## dimethindene maleate
[1]
  intercontraction interval ratio to baseline: performed similarly
